Results reported in patent US11890288B2, “Sulfonamide or sulfinamide compound having effect of inducing BRD4 protein degradation and pharmaceutical use thereof” (MITSUBISHI TANABE PHARMA CORPORATION, priority 2020, dated 2024).

Legend:
[1] = test system: human prostate cancer LNCaP cells; test: Cytotoxic action on LNCaP cells (WST-8, 96 hr); format: cell-based; conditions: 96 hr culture
Protocol: The cytotoxic action of the compound of the present invention against human cancer cells was evaluated in vitro. In this experiment, (+)-JQ1 (Nature volume 468, pages 1067-1073 (23 Dec. 2010)) known to have an inhibitory activity on the binding of BRD4 protein and a ligand therefor was used as a positive control drug. Respective cells were suspended in 10% FBS/RPMI1640, seeded in a 96 well plate and cultured at 5% CO2, 37° C. overnight. A test compound dissolved in DMSO was diluted with 10% FBS/RPMI1640 and added and the cells were further cultured for 96 hr. After culturing, the viable cell number was measured using a cell number measurement WST-8 kit (Kishida Chemical Co., Ltd.). As a control, the measurement was performed under conditions free of the test compound. The cytotoxic activity of the compound of the present invention against human prostate cancer LNCaP cells is shown in IC50 value in Table 1. The IC50 value is a concentration of the compound showing 50% cell survival rate when the cell survival rate thereof under compound untreated condition is 100%. It was calculated from the straight line connecting the cell survival rate at two points enclosing the 50% cell survival rate and the compound concentration. In addition, the cytotoxic activity against respective cancer cells of human acute myeloid leukemia MV-4-11 cell, human chronic myeloid leukemia K562 cell, human multiple myeloma MM.1S cell, human diffuse large B-cell lymphoma SU-DHL-6 cell, human T-cell leukemia Jurkat cells, human Burkitt lymphoma Raji cell, human castration-resistant prostate cancer PC-3 cell, human AR-V7 positive castration-resistant prostate cancer 22Rv1 cell, human ovarian cancer A2780 cell, human cisplatin-resistant ovarian cancer SK-OV-03 cell, human bladder cancer 5637 cell, human breast cancer ZR-75-1 cell, human triple negative breast cancer MDA-MB-231 cell, human uterus cervix cancer HeLa cell, human uterine sarcoma MES-SA cell, human stomach cancer SNU-16 cell, human non-small cell lung cancer NCI-H2126 cell, human EGFRT790M mutation-positive non-small cell lung cancer NCI-H1975 cell, human small cell lung cancer NCI-H82 cell, human large cell lung cancer NCI-H460 cell, human colon cancer HCT116 cell, human glioma U-87 MG cell, human pancreatic cancer BxPC-3 cell, human liver cancer HLF cell, human bile duct cancer HuCCT1 cell, human renal cell cancer 786-O cell, and human fibrosarcoma HT1080 cell is shown in IC50 value in Table 2.

BRD4 protein = BRD4 protein (Homo sapiens (Human), UniProt O60885); test: BRD4 protein degradation inducing action in LNCaP cells (immunofluorescence, 6 hr); format: cell-based; conditions: anti-BRD4 fluorescence intensity
Protocol: The degradation inducing action of the compound of the present invention on BRD4 proteins in cancer cells was evaluated in vitro using human prostate cancer LNCaP cells. LNCaP cells were suspended in 10% FBS/RPMI1640, seeded in a 96 well Cell carrier plate (Perkin Elmer) and cultured at 5% CO2, 37° C. overnight. A test compound dissolved in DMSO was diluted with 10% FBS/RPMI1640 and added and the cells were further cultured for 6 hr. After culturing, the cells were immobilized with 4% para-formaldehyde/PBS and further subjected to a permeation treatment with 0.25% Triton X-100/PBS. Thereafter, the cells were blocked with 10% BSA/PBS, Anti-BRD4 (Sigma-Aldrich) solution was added and the cells were incubated at 4° C. overnight. Furthermore, Goat anti-Rabbit IgG(H+L) Cross-Adsorbed Secondary Antibody, Alexa Fluor 546 (Thermo Fisher Scientific) solution, 0.5 μg/mL Hoechst 33342 (Sigma-Aldrich), and 14 μM Acti-Stain 555 Fluorescent Phalloidin (Cytoskeleton) were added. After incubation for 1 hr, BRD4 protein amount was measured by Operetta (Perkin Elmer) as fluorescence intensity (excitation: 560 nm, emission: 572 nm). The BRD4 protein degradation inducing activity of the compound of the present invention in LNCaP cells is shown in DC50 value in Table 3. The DC50 value is a concentration of the compound showing 50% fluorescence intensity when the fluorescence intensity thereof under compound untreated condition is 100%. It was calculated from the straight line connecting the fluorescence intensity at two points enclosing the 50% fluorescence intensity and the compound concentration.

Structure (SMILES) | IC50 [1] [nM] | DC50 (BRD4 protein) [nM]
Cc1sc2c(c1C)C(c1ccc(-c3ccc(C(=O)NCc4ccc(S(=O)(=O)Nc5ccc(C)c6c(C#N)c[nH]c56)cc4)cc3)cc1)=N[C@@H](CC(=O)NCCO)c1nnc(C)n1-2 [Example 37, N-({4-[(3-cyano-4-methyl-1H-indol-7-yl)sulfamoyl]phenyl}methyl)-4′-[(6S)-6-{2-[(2-hydroxyethyl)amino]-2-oxoethyl}-2,3,9-trimethyl-6H-thieno[3,2-f][1,2,4]triazolo[4,3-a][1,4]diazepin-4-yl][1,1′-biphenyl]-4-carboxamide] | 3 | 1.4
Cc1sc2c(c1C)C(c1ccc(-c3ccc(C(=O)NCc4ccc(S(=O)(=O)Nc5ccc(C)c6c(C#N)c[nH]c56)cc4)cc3)cc1)=N[C@@H](CC(=O)N(C)C)c1nnc(C)n1-2 [Example 38, N-({4-[(3-cyano-4-methyl-1H-indol-7-yl)sulfamoyl]phenyl}methyl)-4′-{(6S)-6-[2-(dimethylamino)-2-oxoethyl]-2,3,9-trimethyl-6H-thieno[3,2-f][1,2,4]triazolo[4,3-a][1,4]diazepin-4-yl}[1,1′-biphenyl]-4-carboxamide] | 5.8 | 5.6
COC(=O)C[C@@H]1N=C(c2ccc(-c3ccc(C(=O)NCCc4ccc(S(=O)(=O)Nc5ccc(C)c6c(C#N)c[nH]c56)cc4)c(F)c3)cc2)c2c(sc(C)c2C)-n2c(C)nnc21 [Example 40, methyl [(6S)-4-{4′-[(2-{4-[(3-cyano-4-methyl-1H-indol-7-yl)sulfamoyl]phenyl}ethyl)carbamoyl]-3′-fluoro[1,1′-biphenyl]-4-yl}-2,3,9-trimethyl-6H-thieno[3,2-f][1,2,4]triazolo[4,3-a][1,4]diazepin-6-yl]acetate] | 0.42 | 0.19
COC(=O)C[C@@H]1N=C(c2ccc(-c3ccc(C(=O)NCCc4ccc(S(=O)(=O)Nc5ccc(C)c6c(C#N)c[nH]c56)cc4)c(Cl)c3)cc2)c2c(sc(C)c2C)-n2c(C)nnc21 [Example 41, methyl [(6S)-4-{3′-chloro-4′-[(2-{4-[(3-cyano-4-methyl-1H-indol-7-yl)sulfamoyl]phenyl}ethyl)carbamoyl][1,1′-biphenyl]-4-yl}-2,3,9-trimethyl-6H-thieno[3,2-f][1,2,4]triazolo[4,3-a][1,4]diazepin-6-yl]acetate] | 1.1 | 0.41
COC(=O)C[C@@H]1N=C(c2ccc(-c3ccc(C(=O)NCc4ccc(S(=O)(=O)Nc5ccc(C)c6c(C#N)c[nH]c56)cc4)cc3F)cc2)c2c(sc(C)c2C)-n2c(C)nnc21 [Example 45, methyl [(6S)-4-{4′-[({4-[(3-cyano-4-methyl-1H-indol-7-yl)sulfamoyl]phenyl}methyl)carbamoyl]-2′-fluoro[1,1′-biphenyl]-4-yl}-2,3,9-trimethyl-6H-thieno[3,2-f][1,2,4]triazolo[4,3-a][1,4]diazepin-6-yl]acetate] | 0.22 | 0.19
COC(=O)C[C@@H]1N=C(c2ccc(-c3ccc(C(=O)NCCc4ccc(S(=O)(=O)Nc5ccc(C)c6c(C#N)c[nH]c56)cc4)cc3Cl)cc2)c2c(sc(C)c2C)-n2c(C)nnc21 [Example 48, methyl [(6S)-4-{2′-chloro-4′-[(2-{4-[(3-cyano-4-methyl-1H-indol-7-yl)sulfamoyl]phenyl}ethyl)carbamoyl][1,1′-biphenyl]-4-yl}-2,3,9-trimethyl-6H-thieno[3,2-f][1,2,4]triazolo[4,3-a][1,4]diazepin-6-yl]acetate] | 0.49 | 0.3
COC(=O)C[C@@H]1N=C(c2ccc(-c3ccc(C(=O)NCc4ccc(S(=O)(=O)Nc5ccc(C)c6c(C#N)c[nH]c56)cc4)c(C)c3)cc2)c2c(sc(C)c2C)-n2c(C)nnc21 [Example 50, methyl [(6S)-4-{4′-[({4-[(3-cyano-4-methyl-1H-indol-7-yl)sulfamoyl]phenyl}methyl)carbamoyl]-3′-methyl[1,1′-biphenyl]-4-yl}-2,3,9-trimethyl-6H-thieno[3,2-f][1,2,4]triazolo[4,3-a][1,4]diazepin-6-yl]acetate] | 0.23 | 0.13
